The values that follow come from patent publication US20100129297A1, “USE OF AN AQUEOUS GRAPE SEED EXTRACT COMBINED WITH AT LEAST ONE FLUORINE SALT TO COMBAT THE FORMATION OR ACCUMULATION OF DENTAL BIOFILM AND COMPOSITIONS COMPRISING SAID COMBINATION” (priority 2007, published 2010).

The test system of experiment [1] is Porphyromonas. Description: Preventive action on an experimental buccal biofilm model, Porphyromonas count. It is filed as cell-based, Porphyromonas gingivalis ATCC 33277. The note with it: fluorinol compared with NaF, each combined with grape seed extract. On the procedure:
The bacterial strains used are: • Streptococcus mutans ATCC 25175 • Streptococcus sobrinus ATCC 33478 • Porphyromonas gingivalis ATCC 33277
These different bacteria, cultivated in their specific medium, are inoculated into 10 mL of universal culture medium FUM (Fluid Universal Medium, composition of the medium in Annex 1), and then incubated in anaerobiosis at 37° C. for 24 hours.
After checking the purity with a microscope, the series of cultures are independently adjusted to OD550 1.0±0.05 (i.e. about 10^7 cells per milliliter) by dilutions with FUM. […]
Serial dilutions to 1:10 of this cell suspension are carried out until concentrations of 10^−2 and 10^−4 are obtained, and then 50 μL of these dilutions are spread over the 4 specific geloses used: mitis salivarius agar, MRS, wilkins chalgren agar (WCA) and blood geloses. The geloses are then placed in anaerobiosis at 37° C. for 48-72 hours and the then the number of formed colonies for each species is counted. […]
The number of colonies formed after 48-72 hours of incubation of the molecules with bacterial biofilms is expressed, after counting, in Colony Forming Units per analyzed Biofilm (or CFU/Biofilm) by the formula:
[Number of counted colonies×dilution factor (10^2 to 10^4)]/Inoculum volume (0.05 mL) […]

Experiment [2] relates to glucosyl transferases (GTF). Description: Inhibition of glucosyl transferases (GTF): initial reaction rate, released fructose (DNS test). It is filed as biochemical, Streptococcus sobrinus ATCC 33478. On the procedure: A strain of Streptococcus sobrinus ATCC 33478 is placed in 1 liter of BHI (brain heart infusion) medium enriched in glucose (10 g/L final concentration) in anaerobiosis at 37° C. for 18 hours. This bacterial medium, the pH of which was brought back to 6.5 by means of a NaOH 1N solution, is then centrifuged for 30 minutes at 8,000 rpm at 4° C. The glucosyl transferase, present in the supernatant is concentrated by precipitation with ammonium sulfate. The latter (50% w/saturation v) is gradually added to the supernatant held at 4° C. under stirring for 30 minutes. The mixture is then centrifuged at 8,000 rpm, 4° for 30 minutes. […]
(§1) The results are expressed as inhibition percentages relatively to control solutions (ultra pure water): • the inhibition percentage of the initial rate of the enzymatic reaction (noted as “fructose” in the following table of results) on the one hand • the inhibition percentage of formation of insoluble glucan produced after 24 hours of incubation at 37° C. […]
Dextran interferes on the whole of the colorimetric methods for assaying proteins, because dextran particles diffract light and generate parasitic absorbance. The amount of glucosyl transferase is therefore measured by its activity under standard conditions. […]

Experiment [3] has as its system glucosyl transferases (GTF). Description: Inhibition of glucosyl transferases (GTF): amount of synthesized insoluble glucan (weighing). The experiment is classed as biochemical, Streptococcus sobrinus ATCC 33478. The note with it: 24 hours at 37° C. On the procedure:
A strain of Streptococcus sobrinus ATCC 33478 is placed in 1 liter of BHI (brain heart infusion) medium enriched in glucose (10 g/L final concentration) in anaerobiosis at 37° C. for 18 hours. This bacterial medium, the pH of which was brought back to 6.5 by means of a NaOH 1N solution, is then centrifuged for 30 minutes at 8,000 rpm at 4° C. The glucosyl transferase, present in the supernatant is concentrated by precipitation with ammonium sulfate. The latter (50% w/saturation v) is gradually added to the supernatant held at 4° C. under stirring for 30 minutes. The mixture is then centrifuged at 8,000 rpm, 4° for 30 minutes. The pellet, rich in glucosyl transferase, is then taken up with phosphate/potassium K2HPO4 buffer (10 mM, pH 10.5), dialyzed (MWC 6-8000; width 14.6 mm) for 16 hours and then frozen at −20° C. This is the solution of purified GTF. […]
as §1
The amount of soluble glucan is measured 24 hours after the beginning of the enzymatic reaction. […]

Each structure is given as a SMILES string.

Consider `F.OCc1cccnc1` [fluorinol, 3-pyridyl methanol hydrofluoride], for which the “effect of potentialization of the grape seed extract on Porphyromonas” value in experiment [1] is on record as “larger than that of NaF”. Also, the results for the “inhibition percentage of the initial enzymatic reaction (fructose)” value in experiment [2] (fluorinol alone 0.68%) and in experiment [2] (fluorinol alone 1.02%) were 10.3% and 20.6%, respectively. Moreover, the “synthesis of insoluble glucan” value in experiment [3] (fluorinol alone 0.68%) and in experiment [3] (fluorinol alone 1.02%) was “inefficient” in each case.
